According to patent US20090275667A1, “USE OF ALLICIN AS PRESERVATIVE, AS DISINFECTANT, AS ANTIMICROBIAL OR AS BIOCIDAL AGENT” (Stone Island Holdings Ltd, priority 2003, published 2009):
≈ marks a conversion by molar mass, not a printed value. Where “and” joins values, the source holds several entries; their conditions need not be identical. Equal values may be shown once.

How the values were obtained:
B. laterosporus = test: Investigation into bacteriostatic or bactericidal effects (Study 2); type: cell-based, Brevibacillus laterosporus; conditions: conclusion from subculture into fresh media
Procedure: Where there was no growth in a replicate, at the end of one week the culture was plated out for single colonies on the appropriate agar. This was to determine whether the test item had bactericidal activity, where all the bacterial cells are killed, or bacteriostatic action, where the cells are unable to replicate in the presence of the substance, but will grow when it is removed. A further test, where 0.5 ml of the broth was transferred into 4.5 ml fresh broth (giving a 1:10 dilution) was also undertaken. There would still be some Allicin in the broth, but it should be present at a low enough concentration for growth not to be affected. Where growth occurred in the absence of Allicin, the broth was examined microscopically and plated out for single colonies to confirm the identity of the bacterium.

Salm. Enteriditis = test: Zones of Inhibition against common chicken bacteria; type: cell-based
[1] = tested on: Paenibacillus larvae subsp. pulvifaciens; test: Disk diffusion test (Kirby-Bauer), zone of inhibition; type: cell-based; conditions: 6 mm paper disc containing 250 μg of allicin
Procedure: (§1) Allicin (Allisure™ Liquid) was tested against bacterial and fungal pathogens using a standard disk diffusion method (per Norrell & Messley). The aliquots of bacterial or fungal spores (100 μl of approximately 10^8-10^9 spores/ml) were plated on Mueller-Hinton agar medium, 4.0 mm depth. The 6 mm paper discs containing 250 μg of allicin or 5 μg of tylosin (positive control) were placed in the center of each plate. Plates were incubated at 33° C. and 6% CO2 and a zone of inhibition was measured 24 h, 48 h or 76 h post inoculation depending on the microbial species. All experiments were replicated at least three times.

[2] = tested on: Paenibacillus larvae subsp. larvae; test: as above; type: cell-based; conditions: 6 mm paper disc containing 250 μg of allicin
Procedure: as §1

Ascosphaera aggregata = test: as above; type: cell-based; conditions: 6 mm paper disc containing 250 μg of allicin
Procedure: as §1

Ascosphaera apis = test: as above; type: cell-based; conditions: 6 mm paper disc containing 250 μg of allicin
Procedure: as §1

[3] = tested on: Paenibacillus larvae subsp. pulvifaciens; test: MIC by broth microdilution, bee pathogens; type: cell-based; conditions: range 1000 ppm to 0.25 ppm
Excerpt: (§2) We tested allicia (Allisure™ Liquid) activity against several species of entomopathogenic bacteria (Paenibacillus larvae subsp. larvae, Paenibacillus larvae subsp. pulvifaciens) and fungi (Ascosphaera apis and Ascosphaera aggregata) using broth microdilution method to determine minimum inhibitory concentration (MIC) and the agar diffusion test (Kirby-Bauer) to determine zone of inhibition. Bacterial spores were isolated from the diseased honey bee larval samples. A small aliquot of heat-treated bacterial spores was suspended in 100 μl of phosphate buffered saline-pH 7.2 (PBS) and plated on semi-selective J. Agar medium, containing Nalidixic and Pipemidic acid (Alippi, A M (1995) Detection of Bacillus larvae spores in Argentinian honeys by using a semi-selective medium. Microbiologia 1995 11(3): 343-50; and Govan, V A; Allsopp, M H; Davison, S A (1999) PCR Detection Method for Rapid Identification of Paenibacillus larvae. Applied and Environmental Microbiology 65(5): 2243-2245.
(§3) The plates were incubated at 33° C. in air containing 6% CO2 and 95% RH. The initial species identification was based on morphological, biological and cultural characteristics. The bacterial culture was tested for a catalase reaction (Leboffe, M. J and Pierce, B e (1999) A photographic atlas for the microbiology laboratory. Morton Publishing Company. 254 pp). The bacterial colonies were characterized by shape, margins and color. Gram-positive stained smears (Gram-stain Reagents Kit, EMD Chemicals Inc., NJ) were examined for morphological identification of vegetative cells and spores.
(§4) DNA based PCR identification was performed to corroborate identification of the bacterial species. Bacterial cells from culture plates were added directly to 30 μl of PCR reaction. The PCR primers used in the reaction were based on the 16S RNA sequence to selectively amplify a fragment of 973 by unique to P. larvae (Govan et al., 1999). The PCR products were visualized by 0.8% agarose gel electrophoresis in TAE buffer and ethidium bromide staining. The reference strains of bacteria were used as a control in PCR reactions and were provided by the National Center for Agricultural Research, Peoria, Ill. P. l. larvae (NRRL B-3560, B-2605) and P. l. palvifaciens (NRRL B-3688, B-3685, B-3689, NRS-1687, P. alvei B383).
(§5) Positive controls contained the antibiotic Tylosin (Tylan® 50, Elanco Animal Health Inc., IN) and negative controls contained no antibiotics. […] The optical densities of cultures (OD 600) were recorded 24 h and 48 h post inoculation, depending on the growth rate of the microbial species. […] Minimum bactericidal concentration values (NBC) were determined for allicin by plating out 100 μl of bacterial cultures derived from the MIC assay. […]

[4] = tested on: Paenibacillus larvae subsp. larvae; test: MIC by broth microdilution, bee pathogens; type: cell-based; conditions: range 1000 ppm to 0.25 ppm
Excerpt: as §2, §3, §4, §5

**Q.** What does the source list for `C=CCS[S+]([O-])CC=C` (stereo not drawn) [allicin, Allicin]?
**A.** bacteriostatic or bactericidal effect (B. laterosporus): did not kill all bacteria; zone of inhibition (Salm. Enteriditis; 166 ppm (1:6 dilution)): 0 mm; zone of inhibition (Salm. Enteriditis; 1000 ppm): 22 mm; zone of inhibition [1]: 24-26 mm; zone of inhibition [2]: 45-50 mm; zone of inhibition (Ascosphaera aggregata): 35-37 mm and 35-38 mm; zone of inhibition (Ascosphaera apis): 31-35 mm; MIC [3]: 350 µg/mL (≈ 2160 µM); MIC [4]: 350 µg/mL (≈ 2160 µM)
